Read-outs that look alike come from different tables or passages of the source. Each block holds one molecule with its values, some of them ahead of it.
Assays:
[1] = system: left atrium; test: Action to heart of guinea pig: left atrium (contraction power); design: species or system Hartley guinea pigs
Description: (§1) Hartley guinea pigs (body weight of 300-400 g) were rendered unconscious by knocking their head and fixed upwardly to exenterate their heart. […] The vessel was previously filled with the Krebs-Henseleit solution and the said mixed gas was continuously fed therein.
(§2) Samples were prepared by separating from a ventricular muscle a right and left atrium, along an auricloventricular furrow or groove from the center-line of the right and left auricles.
The atrium was driven by contacting it with a platinum bipolar electrode attached to the cellfin and by stimulating the same with a rectangular pulse (1 Hz, 1 msec, 10 V). A movement of the sample was recorded by connecting the sample to a recorder through a silk thread and a FD pick-up.

[2] = system: platelet; test: Inhibition of platelet agglutination (rat PRP); format: cell-based
Description: A blood was taken from a descending aorta of the rat anesthetized with ethyl ether. To the blood, 3.8% aqueous sodium citrate was added by a volume of 1/3 and the resulting solution was centrifuged (1500 rpm) at 4° C. for 10 minutes to obtain a supernatant which was designated as "PRP (platelet rich plasma)". The remaining residue was centrifuged (3000 rpm) at 4° C. for 10 minutes to obtain a supernatant which was designated as "PPP (platelet poor plasma)". A stirrer bar and PRP (267 μl) were inserted in a cell and PPP (more than 300 μl) was charged in another cell. A transmissivity to PRP and PPP was measured and set as "0%" for the former case and as "100%" for the latter case.
After a preincubation for 1 minute, a compound to be tested was added by 3 μl and then an agglutination causing substance (collagen or ADP) was added by 30 μl at a time lapsed of 1 minute from the addition of testing compound. For a control group, 3 μl of dimethylsulfoxide was added, instead of the testing compound. A maximum value in transmissivity change after the addition of agglutination causing substance was determined and made as a platelet agglutination rate (%).

[3] = biological target: aldose reductase (Rattus norvegicus, UniProt P07943); test: Inhibition to aldose reductase (method of Kador et al); format: biochemical; conditions: read-out: IC50 (50% Inhibitory Concentration)
Description: An ability for reducing or inhibiting activity of aldose reductase was checked, in accordance with the method of Kador et al as described in "Biophys.

[4] = system: right atrium; test: Action to heart of guinea pig: right atrium (pulsations); design: species or system Hartley guinea pigs; conditions: for inhibition at 100 µM / inhibition at 10 µM: Cavia porcellus, read-out: Pulsation;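 on Pulsation: Dash means no recognizable influence on pulsation rate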
Description: as §1, §2
A contraction of the sample, due to a compound to be tested, was recorded through an FD pick-up. Concurrently, pulsations were input to a measuring unit to count and record number of the pulsations.

[5] = system: thoracic aorta; test: Action to the aorta of guinea pig (relaxation of contracted spiral samples); design: species or system Hartley guinea pigs; conditions: Cavia porcellus
Description: Hartley guinea pigs (body weight of 300-500 g) were rendered unconscious fainted by knocking their head and fixed upwardly. A thoracic aorta was taken out to prepare spiral samples, each having size of about 2×25 mm. The sample was suspended in a Magnus tube under a load of about 1 g and upper end of the sample was connected through a silk thread to a FD pick-up to record a change in isometric tension.
Composition of Krebs-Henseleit solution:
Prior to the experiment, the sample in the Magnus tube was left to stand, as it was, for 60 to 90 minutes and in such period of time, the Krebs-Henseleit solution was exchanged to fresh one at an interval of 20 to 30 minutes.
When the contraction of the sample became constant, the compound to be tested was gradually added in a amount starting at a concentration of 10^-8, to […] to observe the contraction of the sample. Finally, papaverine was added therein, so as to make its final concentration of 2×10^-5 g/ml, to check and record also the relaxing reaction or atony caused by the papaverine.

[6] = 10^-5 (M), left atrium, 32°±1° C.
[7] = Cavia porcellus, 10^-4 (M), left atrium, 32°±1° C., read-out: Contraction
[8] = agglutination caused by collagen, read-out: IC50 Collagen
[9] = 10^-5 (M), right atrium, 32°±1° C.
[10] = 10^-4 (M), right atrium, 32°±1° C.
[11] = contraction by KCl 2.5×10^-2 M, 37° C., read-out: IC50 KCl contraction (50% relaxing)
[12] = contraction by norepinephrine 10^-6 g/ml, 37° C., read-out: IC50 N.E. contraction (50% relaxing)
[13] = agglutination caused by ADP, N.D. : not detected, read-out: IC50 ADP
[14] = Cavia porcellus, read-out: Contraction

SMILES: O=C1NC(=O)[C@@]2(C[C@@H](C(=O)NCCN3CCN(CC=Cc4ccccc4)CC3)Oc3ccc(F)cc32)N1 [Example 8, (2S,4S)-N-[2-(4-Cinnamylpiperazin-1-yl)ethyl]-6-fluoro-2',5'-dioxospiro[chroman-4,4'-imidazolidine]-2-carboxamide]
Contraction [1, 6]: -
inhibition at 100 µM [1, 7]: 10 to 20%
IC50 [2, 8]: 250 µM
IC50 [3]: 0.22 µM
Pulsation [4, 9]: -
inhibition at 100 µM [4, 10]: 10 to 20%
IC50 [5, 11]: > 1000 µM
IC50 [5, 12]: > 1000 µM

SMILES: COc1ccccc1N1CCN(CCNC(=O)[C@@H]2C[C@]3(NC(=O)NC3=O)c3cc(F)ccc3O2)CC1 [Example 9, (2S,4S)-N-{2-[4-(2-Methoxyphenyl)piperazin-1-yl]ethyl}-6-fluoro-2',5'-dioxospiro[chroman-4,4'-imidazolidine]-2-carboxamide]
Contraction [1, 6]: -
inhibition at 100 µM [1, 7]: 10 to 20%
IC50 [2, 8]: 660 µM
IC50 [3]: 0.24 µM
Pulsation [4, 10]: -
Pulsation [4, 9]: -
IC50 [5, 11]: > 1000 µM
IC50 [5, 12]: > 1000 µM

SMILES: O=C1NC(=O)[C@@]2(C[C@@H](C(=O)NNc3ccccc3)Oc3ccc(F)cc32)N1 [Example 3, (2S,4S)-6-Fluoro-2',5'-dioxospiro[chroman-4,4'-imidazolidine]-2-(N'-phenyl)carbohydrazide]
Contraction [1, 6]: -
inhibition at 100 µM [1, 7]: 10 to 20%
IC50 [2, 8]: 140 µM
IC50 [3]: 0.022 µM
Pulsation [4, 10]: -
Pulsation [4, 9]: -
IC50 [5, 11]: 30 µM
IC50 [5, 12]: 0.8 µM

IC50 [3]: 0.65 µM
IC50 [5, 11]: > 1000 µM
IC50 [5, 12]: > 1000 µM
SMILES: O=C1NC(=O)[C@@]2(C[C@@H](C(=O)NCCn3ccnc3)Oc3ccc(F)cc32)N1 [Example 14, (2S,4S)-N-{2-[(Imidazol-1-yl)ethyl]}-6-fluoro-2',5'-dioxospiro[chroman-4,4'-imidazolidine]-2-carboxamide]

SMILES: CC(C(O)c1ccc(O)cc1)N1CCC(Cc2ccccc2)CC1 (stereo not drawn) [B, Ifenprodil, reference compound]
Contraction [1, 6]: -
inhibition at 100 µM [1, 7]: 10 to 20%
inhibition at 100 µM [4, 10]: > 20%
inhibition at 10 µM [4, 9]: > 20%

IC50 [3]: 0.038 µM
IC50 [5, 11]: 95 µM
IC50 [5, 12]: 2 µM
SMILES: NNC(=O)[C@@H]1C[C@]2(NC(=O)NC2=O)c2cc(F)ccc2O1 [Example 1, (2S,4S)-6-Fluoro-2',5'-dioxospiro[chroman-4,4'-imidazolidine]-2-carbohydrazide]

IC50 [3]: 0.3 µM
IC50 [5, 11]: > 1000 µM
IC50 [5, 12]: > 1000 µM
SMILES: CNNC(=O)[C@@H]1C[C@]2(NC(=O)NC2=O)c2cc(F)ccc2O1 [Example 2, (2S,4S)-6-Fluoro-2',5'-dioxospiro[chroman-4,4'-imidazolidine]-2-(N'-methyl)carbohydrazide]

SMILES: O=C1NC(=O)[C@@]2(C[C@@H](C(=O)NCCN3CCC(Cc4ccccc4)CC3)Oc3ccc(F)cc32)N1 [Example 11, (2S,4S)-N-[2-(4-Benzylpiperidin-1-yl)ethyl]-6-fluoro-2'5'-dioxospiro[chroman-4,4'-imidazolidine]-2-carboxamide]
Contraction [1, 6]: -
inhibition at 100 µM [1, 7]: 10 to 20%
IC50 [2, 13]: 370 µM
IC50 [2, 8]: 83 µM
IC50 [3]: 1.9 µM
inhibition at 100 µM [4, 10]: > 20%
inhibition at 10 µM [4, 9]: 10 to 20%
IC50 [5, 11]: 1.9 µM
IC50 [5, 12]: 0.1 µM

SMILES: O=C1NC(=O)[C@@]2(C[C@@H](C(=O)NNc3ccc(Cl)cc3)Oc3ccc(F)cc32)N1 [Example 4, (2S,4S)-6-Fluoro-2',5'-dioxospiro[chroman-4,4'-imidazolidine]-2-(N'-4-chlorophenyl)carbohydrazide]
Contraction [1, 6]: -
inhibition at 100 µM [1, 7]: 10 to 20%
IC50 [2, 8]: 180 µM
IC50 [3]: 0.026 µM
Pulsation [4, 9]: -
inhibition at 100 µM [4, 10]: 10 to 20%
IC50 [5, 11]: > 1000 µM
IC50 [5, 12]: > 1000 µM

SMILES: COc1ccc2c(c1)c(CC(=O)O)c(C)n2C(=O)c1ccc(Cl)cc1 [Indomethacin, reference compound]
IC50 [2, 8]: 68 µM

SMILES: CC(=O)Oc1ccccc1C(=O)O [Aspirin, reference compound]
IC50 [2, 8]: 210 µM

SMILES: CC(C)NCC(O)COc1cccc2ccccc12 (stereo not drawn) [A, Propranolol, reference compound]
inhibition at 10 µM [1, 14]: > 20%
inhibition at 100 µM [1, 14]: > 20%
inhibition at 10 µM [4]: > 20%
inhibition at 100 µM [4]: > 20%

IC50 [3]: 0.037 µM
IC50 [5, 11]: > 1000 µM
IC50 [5, 12]: > 1000 µM
SMILES: O=C1NC(=O)[C@@]2(C[C@@H](C(=O)NO)Oc3ccc(F)cc32)N1 [Example 7, (2S,4S)-6-Fluoro-2',5'-dioxospiro[chroman-4,4'-imidazolidine]-2-hydroxamic acid]

SMILES: O=C1NC(=O)[C@@]2(C[C@@H](C(=O)NCCO[N+](=O)[O-])Oc3ccc(F)cc32)N1 [Example 13, (2S, 4S)-N-(2-Nitroxyethyl)-6-fluoro-2',5'-dioxospiro[chroman-4,4'-imidazolidine]-2-carboxamide]
IC50 [2, 8]: 240 µM
IC50 [3]: 0.19 µM
IC50 [5, 11]: 60 µM
IC50 [5, 12]: 20 µM

SMILES: O=C1NC(=O)[C@@]2(C[C@@H](C(=O)NCCN3CCN(C(c4ccccc4)c4ccccc4)CC3)Oc3ccc(F)cc32)N1 [Example 10, (2S,4S)-N-{2-[4-(Diphenylmethyl)piperazin-1-yl]ethyl}-6-fluoro-2',5'-dioxospiro[chroman-4,4'-imidazolidine]-2-carboxamide]
Contraction ([1]; 10^-4 (M), left atrium, 32°±1° C.): -
Contraction [1, 6]: -
IC50 [2, 13]: 700 µM
IC50 [2, 8]: 410 µM
IC50 [3]: 0.15 µM
inhibition at 100 µM [4, 10]: > 20%
inhibition at 10 µM [4, 9]: 10 to 20%
IC50 [5, 11]: 1.8 µM
IC50 [5, 12]: 100 µM

SMILES: COc1ccc(NNC(=O)[C@@H]2C[C@]3(NC(=O)NC3=O)c3cc(F)ccc3O2)cc1 [Example 5, (2S,4S)-6-Fluoro-2',5'-dioxospiro[chroman-4,4'-imidazolidine]-2-(N'-4-methoxyphenyl)carbohydrazide]
Contraction [1, 6]: -
inhibition at 100 µM [1, 7]: 10 to 20%
IC50 [2, 8]: 26 µM
IC50 [3]: 0.044 µM
Pulsation [4, 10]: -
Pulsation [4, 9]: -
IC50 [5, 11]: 5 µM
IC50 [5, 12]: 30 µM

SMILES: O=C1NC(=O)[C@@]2(C[C@@H](C(=O)NNc3cccc4ccccc34)Oc3ccc(F)cc32)N1 [Example 6, (2S,4S)-6-Fluoro-2',5'-dioxospiro[chroman-4,4'-imidazolidine]-2-(N'-1-naphthyl)carbohydrazide]
Contraction [1, 6]: -
inhibition at 100 µM [1, 7]: 10 to 20%
IC50 [2, 8]: 230 µM
IC50 [3]: 0.013 µM
Pulsation [4, 9]: -
inhibition at 100 µM [4, 10]: 10 to 20%

SMILES: COc1cc(/C=C/C(=O)N2CCN(CC(=O)N3CCCC3)CC2)cc(OC)c1OC [Cinepazide, reference compound]
IC50 ([5]; read-out: IC50 KCl contraction (50% relaxing)): 2000 µM
IC50 ([5]; read-out: IC50 N.E. contraction (50% relaxing)): 1000 µM

IC50 [3]: 0.15 µM
IC50 [5, 11]: 160 µM
IC50 [5, 12]: 30 µM
SMILES: COc1cc(C=CC(=O)N2CCN(CCNC(=O)[C@@H]3C[C@]4(NC(=O)NC4=O)c4cc(F)ccc4O3)CC2)cc(OC)c1OC [Example 12, (2S,4S)-N-{2-[4-(3,4,5-Trimethoxycinnamoyl)piperazin-1-yl]ethyl}-6-fluoro-2',5'-dioxospiro[chroman-4,4'-imidazolidine]-2-carboxamide]
Contraction [1, 6]: -
inhibition at 100 µM [1, 7]: 10 to 20%
Pulsation [4, 10]: -
Pulsation [4, 9]: -
